Legend:
[1] = system: WT HIV-1 strain (IIIB); assay: Anti-HIV-1 activity in MT-4 cells, MTT method, wild-type strain IIIB; format: cell-based; conditions: for SI IIIB: selectivity index, ratio of CC50/EC50, strain IIIB
Description: (§1) Antiviral potency was evaluated in MT-4 cell cultures infected with WT HIV-1 strain (IllB) as well as cells infected with a panel of NNRTI-resistant double-mutant strain K103N+Y181C (RES056).
(§2) Selected compounds were screened for inhibitory activity against HIV-1 using MTT method as describe previously by Christophe. Pannecouque et al. Nat. Protoc. […] And in vitro anti-HIV activity of compounds were supported by Rega Institute for Medical Research. The MTT assay is based on the reduction of the yellow colored 3-(4,5-dimethylthiazol-2-yl)-2,5-diphenyltetrazolium bromide (MTT) by mitochondrial dehydrogenases of metabolically active cells to a blue formazan which can be measured spectrophotometrically. Tested optical density served as an indicator for live cells, and survival rate can be concluded by testing the optical density of 540 nm and 690 nm. MT-4 cells infected with HIV-1 can only survive for 5 to 7 days without any treatment, but when HIV-1 inhibitors were added, they can protect MT-4 cell from cytopathic. Serial solution of compounds was added to MT-4 cells after infected with HIV-1, MTT method was used to detect the survival rate after culture for 5 to 7 days.
(§3) (1) MT-4 cells infected with HIV-1 viral strains (IIIB, Y181C/K103N) were provided by Rega Institute for Medical Research, Katholieke Universiteit Leuven, Belgium.
(§4) (3) Preparation of compounds: Stock solutions (10×final concentration) of test compounds is diluted with double distilled H2O for 5 folds and 5 concentrations of one compound are prepared.
(§5) (5) Test method (MTT method): Serial five-fold dilutions of test compounds were added to cultured MT-4 cells infected with HIV-1, after 5 to 7 days, MTT was added and cultured for a few hours.
(§6) The MTT method was described briefly as follows: stock solutions (10×final concentration) of test compounds were added in 25 μL volumes to two series of triplicate wells in order to allow simultaneous evaluation of the effects on mock- and HIV-infected cells. Using a Biomek 3000 robot (Beckman Instruments, Fullerton, Calif.), serial five-fold dilutions of the test compounds (final 200 μL volume per well) were made directly in flat-bottomed 96-well microtiter trays, including untreated control HIV-1 and mock-infected cell samples for each sample. […] Mock-infected cells were used to evaluate the effect of test compounds on uninfected cells to assess cytotoxicity. Exponentially growing MT-4 cells were centrifuged for 5 min at 1000 rpm and the supernatant was discarded. […] At five days after infection, the viability of mock- and HIV-infected cells was determined spectrophotometrically by means of MTT assay.
(§7) The MTT assay is based on the reduction of yellow-colored MTT (Acros Organics, Geel, Belgium) by mitochondrial dehydrogenase of metabolically active cells to form a blue-purple formazan that can be measured spectrophotometrically. The absorbances were read in an eight-channel computer-controlled photometer, at the wavelengths of 540 and 690 nm. All data were calculated using the median optical density (OD) value of three wells.

[2] = system: NNRTI-resistant double-mutant strain K103N+Y181C (RES056); assay: microbe, parasite or virus in culture; format: cell-based, HIV-1; conditions: for EC50: Human immunodeficiency virus 1, MT4, read-out: EC50 RES056; for SI RES056: selectivity index, ratio of CC50/EC50, strain RES056
Description: as §1, §2, §3, §4, §5, §6, §7

[3] = system: mock-infected MT-4 cells; assay: Cytotoxicity in mock-infected MT-4 cells, MTT method; format: cell-based; conditions: human, 5 days
Description: (§8) The MTT method was described briefly as follows: stock solutions (10×final concentration) of test compounds were added in 25 μL volumes to two series of triplicate wells in order to allow simultaneous evaluation of the effects on mock- and HIV-infected cells. Using a Biomek 3000 robot (Beckman Instruments, Fullerton, Calif.), serial five-fold dilutions of the test compounds (final 200 μL volume per well) were made directly in flat-bottomed 96-well microtiter trays, including untreated control HIV-1 and mock-infected cell samples for each sample. HIV-1 (IIIB) and mutant HIV-1 strains stock (50 μL at 100-300 CCID50) or culture medium was added to either the infected or mock-infected wells of the microtiter tray. Mock-infected cells were used to evaluate the effect of test compounds on uninfected cells to assess cytotoxicity. Exponentially growing MT-4 cells were centrifuged for 5 min at 1000 rpm and the supernatant was discarded. The MT-4 cells were resuspended at 6×10^5 cells/mL, and 50 μL aliquots were transferred to the microtiter tray wells. At five days after infection, the viability of mock- and HIV-infected cells was determined spectrophotometrically by means of MTT assay.
as §7

[4] = as above; format: cell-based; conditions: human, CC50
Description: as §8, §7

Compound: Cc1cc(C#N)cc(C)c1Oc1nc(NC2CCN(Cc3ccc(C(N)=O)cc3)CC2)nc2c1COC2 [Compound B2, 4-((4-((4-(4-cyano-2,6-dimethylphenoxy)-5,7-dihydrofuro[3,4-d]pyrimidin-2-yl)amino)piperidin-1-yl)methyl)benzamide]
- EC50 ([1]; Human immunodeficiency virus 1, IIIB, MT4, read-out: EC50 IIIB): 2 nM
- EC50 [2]: 41.5 ± 9.9 nM
- SI RES056 [2]: >6039
- CC50 [3]: > 250000 nM
- CC50 at 5 days [4]: > 200000 nM

Compound: Cc1cc(C#N)cc(C)c1Oc1nc(NC2CCN(Cc3ccc(S(N)(=O)=O)cc3)CC2)nc2c1CCC2 [Compound C1, 4-((4-((4-(4-cyano-2,6-dimethylphenoxy)-6,7-dihydro-5H-cyclopenta[d]pyrimidin-2-yl)amino)piperidin-1-yl)methyl)benzenesulfonamide]
- fold more potent than ETR ([1]; EC50 against HIV-1 IIIB compared with ETR): about 4.6 fold
- EC50 [2]: 25.8 nM
- SI RES056 [2]: >9091
- CC50 [3]: > 234000 nM
- CC50 at 5 days [4]: > 200000 nM

Compound: Cc1cc(C#N)cc(C)c1Oc1nc(NC2CCN(Cc3ccc(S(N)(=O)=O)cc3)CC2)nc2c1SCC2 [Compound A1, 4-((4-((4-(4-cyano-2,6-dimethylphenoxy)-6,7-dihydrothieno[3,2-d]pyrimidin-2-yl)amino)piperidin-1-yl)methyl)benzenesulfonamide]
- SI IIIB [1]: 4584
- EC50 [2]: 28.8 ± 1.2 nM
- SI RES056 [2]: 692
- CC50 [3]: 19900 ± 10100 nM

Compound: Cc1cc(C#N)cc(C)c1Oc1nc(NC2CCN(Cc3ccc(S(C)(=O)=O)cc3)CC2)nc2c1CSC2 [Compound D2, 3,5-dimethyl-4-((2-((1-(4-(methylsulfonyl)benzyl)piperidin-4-yl)amino)-5,7-dihydrothieno[3,4-d]pyrimidin-4-yl)oxy)benzonitrile]
- SI IIIB [1]: 11690
- EC50 [2]: 170 ± 32 nM
- SI RES056 [2]: 266
- CC50 [3]: 45300 ± 31100 nM

Source: patent US11084830B2, “Five-membered non aromatic ring-pyrimidine HIV-1 reverse transcriptase inhibitor, preparation method therefor, and uses thereof” (priority 2018, dated 2021)
